Results taken from US11214594B2, “Antimicrobial peptide having synergistic antibacterial effect with antibiotics on multidrug resistant bacteria, and use thereof” (priority 2016, dated 2022).
In brackets after ≈: the same amount, converted by molar mass. Where two headings read alike, the source gives them in different places. Where a SMILES comes first, the peptide text is derived from it.

Assays:
MDREC 1238 = format: cell-based, Escherichia coli
In short: (§1)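 Broth microdilution in MH medium: strains diluted to 2×10^6 CFU were mixed with equal volumes of twofold serial peptide dilutions in MH medium. MIC was taken as the lowest peptide concentration preventing bacterial growth.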

MDRAB 12035 [1] = experiment: MIC of antimicrobial peptide during combined treatment with antibiotic; format: cell-based, Acinetobacter baumannii
In short: (§2)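 Antibiotic MIC came from antibiotic dilutions added to bacteria (2×10^6 CFU/ml, MH medium) already combined with peptide serially diluted 2:1 from its own MIC. Swapping the roles of the two agents gave the peptide MIC.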

A. baumannii = experiment: as above; format: cell-based, Acinetobacter baumannii
In short: as §2

B. subtilis = experiment: microbe, parasite or virus in culture; format: cell-based, Bacillus subtilis
In short: as §1

MDRAB 12036 = format: cell-based, Acinetobacter baumannii
In short: as §1

MDRST 8009 = format: cell-based, Salmonella typhimurium; settings: agent alone
In short: as §1

MDRST 8007 = experiment: Minimal inhibitory concentration (MIC), single agent; format: cell-based, Salmonella typhimurium; settings: agent alone
In short: as §1

MRSA 3114 = format: cell-based, Staphylococcus aureus; settings: 3114
In short: as §1

MRSA 3126 = format: cell-based, Staphylococcus aureus; settings: 3126
In short: as §1

MDRAB 12035 [2] = experiment: MIC of antibiotic during combined treatment with antimicrobial peptide; format: cell-based, Acinetobacter baumannii
In short: as §2

E. coli [3] = experiment: microbe, parasite or virus in culture; format: cell-based, Escherichia coli
In short: as §1

MDREC 1229 [4] = experiment: microbe, parasite or virus in culture; format: cell-based, Escherichia coli
In short: as §1

P. aeruginosa = experiment: microbe, parasite or virus in culture; format: cell-based, Pseudomonas aeruginosa
In short: as §1

E. coli [5] = format: cell-based, Escherichia coli; settings: E. coli
In short: as §2

MDREC 1229 [6] = format: cell-based, Escherichia coli
In short: as §2

S. epidermidis = experiment: microbe, parasite or virus in culture; format: cell-based, Staphylococcus epidermidis
In short: as §1

E. coli [7] = experiment: MIC of antibiotic during combined treatment with antimicrobial peptide; format: cell-based, Escherichia coli; settings: for Antibiotic MIC, Erythromycin / Antibiotic MIC, Linezolid / Antibiotic MIC, Vancomycin: E. coli
In short: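 MIC values for mixed peptide plus antibiotic solutions were measured in MH medium.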

MDRPA 2003 = format: cell-based, Pseudomonas aeruginosa
In short: as §1

MDRPA 2002 = format: cell-based, Pseudomonas aeruginosa
In short: as §1

[8] = erythromycin 4 μg/ml (Conc./MIC 1/8)
[9] = erythromycin 8 μg/ml (Conc./MIC 1/4)
[10] = erythromycin 16 μg/ml (Conc./MIC 1/2)
[11] = erythromycin 32 μg/ml (Conc./MIC 1)
[12] = vancomycin 512 μg/ml (Conc./MIC 1/2)
[13] = vancomycin 1024 μg/ml (Conc./MIC 1)
[14] = peptide treatment concentration 1 μg/ml
[15] = peptide treatment concentration 2 μg/ml
[16] = peptide treatment concentration 4 μg/ml
[17] = peptide treatment concentration 6 μg/ml
[18] = peptide treatment concentration 8 μg/ml
[19] = peptide treatment concentration 16 μg/ml
[20] = peptide treatment concentration 32 μg/ml
[21] = peptide treatment concentration 64 μg/ml
[22] = with Erythromycin […] (Conc./MIC 1)

CC[C@H](C)[C@H](NC(=O)[C@H](CCCCN)NC(=O)[C@H](Cc1c[nH]c2ccccc12)NC(=O)[C@@H](N)CCCNC(=N)N)C(=O)N[C@@H](Cc1ccccc1)C(=O)N[C@@H](CCCCN)C(=O)N[C@@H](CCCCN)C(=O)N[C@H](C(=O)N1CCC[C@H]1C(=O)N[C@@H](CCCCN)C(=O)N[C@@H](CC(C)C)C(=O)N[C@@H](CC(C)C)C(=O)N[C@@H](Cc1c[nH]cn1)C(=O)N[C@@H](CO)C(=O)N[C@@H](CC(C)C)C(=O)N[C@@H](CCCCN)C(=O)N[C@@H](CCCCN)C(=O)N[C@@H](Cc1c[nH]c2ccccc12)C(N)=O)[C@@H](C)CC [PapMA-10, RWK IFK KIP KLL HSL KKW-NH2] (H-RWKIFKKIPKLLHSLKKW-NH2; N-terminus assumed)
Minimal inhibitory concentration MIC (MDREC 1238): 64 µg/mL (≈ 27.2 µM) | Peptide MIC during treatment with erythromycin (MDRAB 12035 [1]; [8]): 16 µg/mL | Peptide MIC during treatment with erythromycin (MDRAB 12035 [1]; [9]): 8 µg/mL | Peptide MIC during treatment with erythromycin (MDRAB 12035 [1]; [10]): 4 µg/mL | Peptide MIC during treatment with erythromycin (MDRAB 12035 [1]; [11]): 0 µg/mL | Peptide MIC during treatment with linezolid (MDRAB 12035 [1]; linezolid 64 μg/ml (Conc./MIC 1/8)): 4 µg/mL | Peptide MIC during treatment with linezolid (MDRAB 12035 [1]; linezolid 512 μg/ml (Conc./MIC 1)): 0 µg/mL | Peptide MIC during treatment with linezolid (MDRAB 12035 [1]; linezolid […] (Conc./MIC 1/2)): 2 µg/mL | Peptide MIC during treatment with linezolid (MDRAB 12035 [1]; linezolid […] (Conc./MIC 1/4)): 2 µg/mL | Peptide MIC during treatment with vancomycin (MDRAB 12035 [1]; [12]): 2 µg/mL | Peptide MIC during treatment with vancomycin (MDRAB 12035 [1]; [13]): 1 µg/mL | Peptide MIC during treatment with vancomycin (MDRAB 12035 [1]; vancomycin […] (Conc./MIC 1/4)): 4 µg/mL | Peptide MIC during treatment with vancomycin (MDRAB 12035 [1]; vancomycin […] (Conc./MIC 1/8)): 4 µg/mL | Peptide MIC during treatment with antibiotic (A. baumannii; [8]): 8 µg/mL | Peptide MIC during treatment with antibiotic (A. baumannii; [9]): 4 µg/mL | Peptide MIC during treatment with antibiotic (A. baumannii; [10]): 2 µg/mL | Peptide MIC during treatment with antibiotic (A. baumannii; [11]): 0 µg/mL | Peptide MIC during treatment with antibiotic (A. baumannii; linezolid 32 μg/ml (Conc./MIC 1/8)): 8 µg/mL | Peptide MIC during treatment with antibiotic (A. baumannii; linezolid 64 μg/ml (Conc./MIC 1/4)): 4 µg/mL | Peptide MIC during treatment with antibiotic (A. baumannii; linezolid […] (Conc./MIC 1)): 0 µg/mL | Peptide MIC during treatment with antibiotic (A. baumannii; linezolid […] (Conc./MIC 1/2)): 4 µg/mL | Peptide MIC during treatment with antibiotic (A. baumannii; [12]): 1 µg/mL | Peptide MIC during treatment with antibiotic (A. baumannii; [13]): 0 µg/mL | Peptide MIC during treatment with antibiotic (A. baumannii; vancomycin […] (Conc./MIC 1/4)): 1 µg/mL | Peptide MIC during treatment with antibiotic (A. baumannii; vancomycin […] (Conc./MIC 1/8)): 4 µg/mL | Minimal inhibitory concentration MIC (B. subtilis): >128 µg/mL | Minimal inhibitory concentration MIC (MDRAB 12036): 32 µg/mL (≈ 13.6 µM) | Minimal inhibitory concentration MIC (MDRST 8009): 32 µg/mL (≈ 13.6 µM) | Minimal inhibitory concentration MIC (MDRST 8007): 32 µg/mL (≈ 13.6 µM) | Minimal inhibitory concentration MIC (MRSA 3114): >128 µg/mL | Minimal inhibitory concentration MIC (MRSA 3126): >128 µg/mL | Erythromycin MIC during combined treatment with peptide (MDRAB 12035 [2]; [14]): 32 µg/mL | Linezolid MIC during combined treatment with peptide (MDRAB 12035 [2]; [14]): >128 µg/mL | Vancomycin MIC during combined treatment with peptide (MDRAB 12035 [2]; [14]): >128 µg/mL | Erythromycin MIC during combined treatment with peptide (MDRAB 12035 [2]; [15]): 32 µg/mL | Linezolid MIC during combined treatment with peptide (MDRAB 12035 [2]; [15]): >128 µg/mL | Vancomycin MIC during combined treatment with peptide (MDRAB 12035 [2]; [15]): >128 µg/mL | Erythromycin MIC during combined treatment with peptide (MDRAB 12035 [2]; [16]): 16 µg/mL | Linezolid MIC during combined treatment with peptide (MDRAB 12035 [2]; [16]): 64 µg/mL | Vancomycin MIC during combined treatment with peptide (MDRAB 12035 [2]; [16]): 64 µg/mL | Erythromycin MIC during combined treatment with peptide (MDRAB 12035 [2]; [17]): 8 µg/mL | Linezolid MIC during combined treatment with peptide (MDRAB 12035 [2]; [17]): 32 µg/mL | Vancomycin MIC during combined treatment with peptide (MDRAB 12035 [2]; [17]): 32 µg/mL | Erythromycin MIC during combined treatment with peptide (MDRAB 12035 [2]; [18]): 8 µg/mL | Linezolid MIC during combined treatment with peptide (MDRAB 12035 [2]; [18]): 16 µg/mL | Vancomycin MIC during combined treatment with peptide (MDRAB 12035 [2]; [18]): 16 µg/mL | Erythromycin MIC during combined treatment with peptide (MDRAB 12035 [2]; [19]): 4 µg/mL | Linezolid MIC during combined treatment with peptide (MDRAB 12035 [2]; [19]): 8 µg/mL | Vancomycin MIC during combined treatment with peptide (MDRAB 12035 [2]; [19]): 4 µg/mL | Erythromycin MIC during combined treatment with peptide (MDRAB 12035 [2]; [20]): 0 µg/mL | Linezolid MIC during combined treatment with peptide (MDRAB 12035 [2]; [20]): 2 µg/mL | Vancomycin MIC during combined treatment with peptide (MDRAB 12035 [2]; [20]): 4 µg/mL | Erythromycin MIC during combined treatment with peptide (MDRAB 12035 [2]; [21]): 0 µg/mL | Linezolid MIC during combined treatment with peptide (MDRAB 12035 [2]; [21]): 0 µg/mL | Vancomycin MIC during combined treatment with peptide (MDRAB 12035 [2]; [21]): 0 µg/mL | Minimal inhibitory concentration MIC (E. coli [3]; 16 h): 32 µg/mL (≈ 13.6 µM) | Antibacterial activity relative to PapMA-1 (E. coli [3]; E. coli): at least twice as high | Minimal inhibitory concentration MIC (MDREC 1229 [4]): 64 µg/mL (≈ 27.2 µM) | Minimal inhibitory concentration MIC (P. aeruginosa): 8 µg/mL (≈ 3.41 µM) | Peptide MIC (E. coli [5]; [22]): 0 µg/mL | Peptide MIC (E. coli [5]; with Linezolid […] (Conc./MIC 1)): 0 µg/mL | Peptide MIC (E. coli [5]; with Vancomycin 1024 μg/ml (Conc./MIC 1)): 0 µg/mL | Peptide MIC (MDREC 1229 [6]; [22]): 0 µg/mL | Peptide MIC (MDREC 1229 [6]; with Linezolid 512 μg/ml (Conc./MIC 1)): 0 µg/mL | Minimal inhibitory concentration MIC (S. epidermidis): >128 µg/mL | Synergistic effect of antibacterial activity with existing antibiotics compared with PapMA-1 (E. coli [7]; E. coli and MDREC1229): level similar to that of the PapMA-1 peptide | Antibiotic MIC, Erythromycin (E. coli [7]; erythromycin combined with peptide at 1 μg/ml): 128 µg/mL | Antibiotic MIC, Erythromycin (E. coli [7]; erythromycin combined with peptide at 2 μg/ml): 64 µg/mL | Antibiotic MIC, Erythromycin (E. coli [7]; erythromycin combined with peptide at 4 μg/ml): 32 µg/mL | Antibiotic MIC, Erythromycin (E. coli [7]; erythromycin combined with peptide at 6 μg/ml): 8 µg/mL | Antibiotic MIC, Erythromycin (E. coli [7]; erythromycin combined with peptide at 8 μg/ml): 0.5 µg/mL | Antibiotic MIC, Erythromycin (E. coli [7]; erythromycin combined with peptide at 16 μg/ml): 0.25 µg/mL | Antibiotic MIC, Erythromycin (E. coli [7]; erythromycin combined with peptide at 32 μg/ml): 0 µg/mL | Antibiotic MIC, Erythromycin (E. coli [7]; erythromycin combined with peptide at 64 μg/ml): 0 µg/mL | Antibiotic MIC, Linezolid (E. coli [7]; linezolid combined with peptide at 1 μg/ml): >128 µg/mL | Antibiotic MIC, Linezolid (E. coli [7]; linezolid combined with peptide at 2 μg/ml): >128 µg/mL | Antibiotic MIC, Linezolid (E. coli [7]; linezolid combined with peptide at 4 μg/ml): 128 µg/mL | Antibiotic MIC, Linezolid (E. coli [7]; linezolid combined with peptide at 6 μg/ml): 64 µg/mL | Antibiotic MIC, Linezolid (E. coli [7]; linezolid combined with peptide at 8 μg/ml): 8 µg/mL | Antibiotic MIC, Linezolid (E. coli [7]; linezolid combined with peptide at 16 μg/ml): 4 µg/mL | Antibiotic MIC, Linezolid (E. coli [7]; linezolid combined with peptide at 32 μg/ml): 0 µg/mL | Antibiotic MIC, Linezolid (E. coli [7]; linezolid combined with peptide at 64 μg/ml): 0 µg/mL | Antibiotic MIC, Vancomycin (E. coli [7]; vancomycin combined with peptide at 1 μg/ml): >128 µg/mL | Antibiotic MIC, Vancomycin (E. coli [7]; vancomycin combined with peptide at 2 μg/ml): >128 µg/mL | Antibiotic MIC, Vancomycin (E. coli [7]; vancomycin combined with peptide at 4 μg/ml): 64 µg/mL | Antibiotic MIC, Vancomycin (E. coli [7]; vancomycin combined with peptide at 6 μg/ml): 32 µg/mL | Antibiotic MIC, Vancomycin (E. coli [7]; vancomycin combined with peptide at 8 μg/ml): 16 µg/mL | Antibiotic MIC, Vancomycin (E. coli [7]; vancomycin combined with peptide at 16 μg/ml): 2 µg/mL | Antibiotic MIC, Vancomycin (E. coli [7]; vancomycin combined with peptide at 32 μg/ml): 0 µg/mL | Antibiotic MIC, Vancomycin (E. coli [7]; vancomycin combined with peptide at 64 μg/ml): 0 µg/mL | Minimal inhibitory concentration MIC (MDRPA 2003): 16 µg/mL (≈ 6.81 µM) | Minimal inhibitory concentration MIC (MDRPA 2002): 8 µg/mL (≈ 3.41 µM)
